Test results as given in publication PMC4210897, “Antimicrobial Activity of Peptides Derived from Olive Flounder Lipopolysaccharide Binding Protein/Bactericidal Permeability-Increasing Protein (LBP/BPI)” (Marine Drugs, 2014).
Where no end group is shown, it is not given here.

Assays:
[1] = system: B. subtilis KCTC1021; test: Ultrasensitive radial diffusion assay (URDA), MEC; assay type: cell-based, Bacillus subtilis; settings: B. subtilis KCTC1021, Gram +, 10 mM PB pH 6.6, 37 °C, x-intercept of units vs log10 concentration, triplicate averaged
Description: (§1) The antimicrobial activity of the purified peptide was assessed as described previously. We tested the synthetic peptides against several Gram-positive bacteria including two Bacillus subtilis strains, Micrococcus luteus, Staphylococcus aureus, and Streptococcus iniae, Gram-negative bacteria including three Escherichia coli strains, Aeromonas hydrophila, Edwardsiella tarda, Pseudomonas aeruginosa, Vibrio parahemolyticus, and Salmonella enteric, as well as the yeast Candida albicans. All strains were grown overnight for 18 h in trypticase soy broth (TSB) or sabouraud dextrose broth (SDB) at the appropriate temperature (25 °C for A. hydrophila, E. tarda, P. aeruginosa, S. iniae, and V. parahemolyticus and 37 °C for the other strains). After an overnight incubation, the bacterial and C. albicans suspensions were diluted to a McFarland turbidity standard of 0.5 (Vitek Colorimeter #52-1210; Hach, Loveland, CO, USA) corresponding to ~10^8 CFU/mL for bacteria and ~10^6 CFU/mL for C. albicans. One-half milliliter of diluted bacterial or C. albicans suspension was added to 9.5 mL of underlay gel containing 5 × 10^6 CFU/mL or 5 × 10^4 CFU/mL in 10 mM phosphate buffer (PB; pH 6.6) with 0.03% TSB or 0.03% SDB and 1% Type I (low EEO) agarose. The purified peptide was serially diluted twofold in 5 μL of acidified water (0.01% HAc), and each dilution was added to 2.5-mm-diameter wells made in the 1-mm-thick underlay gels. After incubation for 3 h at either 25 °C (for A. hydrophila, E. tarda, P. aeruginosa, S. iniae, and V. parahemolyticus) or 37 °C (the other strains), the bacterial or yeast suspension was overlaid with 10 mL of double-strength overlay gel containing 6% TSB or 6% SDB with 10 mM PB (pH 6.6) in 1% agarose. Plates were incubated for an additional 18–24 h, after which the clearing zone diameters were measured. After subtracting the diameter of the well, the clearing zone diameter was expressed in units (0.1 mm = 1 U).
(§2) All tested bacteria and yeast were prepared as described above. The minimal effective concentration (MEC, μg/mL) of the synthetic peptides was calculated as the x-intercept of a plot of units against the log10 of the peptide concentration. […] The antimicrobial assay was performed in triplicate and the results were averaged.

[2] = system: B. subtilis RM125; test: URDA, MEC; assay type: cell-based, Bacillus subtilis; settings: B. subtilis RM125, Gram +, pH 6.6, 37 °C, triplicate averaged
Description: as §1, §2

[3] = system: M. luteus ATCC9341; test: URDA, MEC; assay type: cell-based, Micrococcus luteus; settings: M. luteus ATCC9341, Gram +, pH 6.6, 37 °C, triplicate averaged
Description: as §1, §2

[4] = system: S. aureus RM4220; test: URDA, MEC; assay type: cell-based, Staphylococcus aureus; settings: S. aureus RM4220, Gram +, pH 6.6, 37 °C, triplicate averaged
Description: as §1, §2

[5] = system: E. coli KCTC1116; test: URDA, MEC; assay type: cell-based, Escherichia coli; settings: E. coli KCTC1116, Gram −, pH 6.6, 37 °C, triplicate averaged
Description: as §1, §2

[6] = system: E. coli ML35p; test: URDA, MEC; assay type: cell-based, Escherichia coli; settings: Gram −, pH 6.6, 37 °C, triplicate averaged
Description: as §1, §2

[7] = system: P. aeruginosa KCTC2004; test: URDA, MEC; assay type: cell-based, Pseudomonas aeruginosa; settings: P. aeruginosa KCTC2004, Gram −, pH 6.6, 25 °C, triplicate averaged
Description: as §1, §2

[8] = system: S. enterica KCTC2514; test: URDA, MEC; assay type: cell-based, Salmonella enteric; settings: S. enterica KCTC2514, Gram −, pH 6.6, 37 °C, triplicate averaged
Description: as §1, §2

[9] = system: A. hydrophila KCTC2358; test: URDA, MEC; assay type: cell-based, Aeromonas hydrophila; settings: fish pathogen A. hydrophila KCTC2358, Gram −, pH 6.6, 25 °C, triplicate averaged
Description: as §1, §2

[10] = system: E. tarda H-4; test: URDA, MEC; assay type: cell-based, Edwardsiella tarda; settings: fish pathogen E. tarda H-4, Gram −, pH 6.6, 25 °C, triplicate averaged
Description: as §1, §2

[11] = system: S. iniae FP5229; test: URDA, MEC; assay type: cell-based, Streptococcus iniae; settings: fish pathogen S. iniae FP5229, Gram +, pH 6.6, 25 °C, triplicate averaged
Description: as §1, §2

[12] = system: V. parahemolyticus KCCM41664; test: URDA, MEC; assay type: cell-based, Vibrio parahemolyticus; settings: fish pathogen V. parahemolyticus KCCM41664, Gram −, pH 6.6, 25 °C, triplicate averaged
Description: as §1, §2

[13] = system: C. albicans KCTC7965; test: URDA, MEC; assay type: cell-based, Candida albicans; settings: C. albicans KCTC7965, yeast, pH 6.6, 37 °C, triplicate averaged
Description: as §1, §2

[14] = system: E. coli ML35p outer membrane; test: Outer membrane permeabilization, NPN uptake assay; assay type: cell-based, Escherichia coli; settings: peptide 40 μg/mL, 3 min after addition, 25 °C, 5 mM HEPES pH 7.2; order 2A > 6A > 1N > 5A; triplicate
Description: (§3) The outer membrane-permeabilizing activity of peptides was determined using the 1-N-phenylnapthylamine (NPN) uptake assay as described by Koo et al.. Briefly, an overnight culture of E. coli ML35p was transferred to fresh TSB medium and grown to A600 of 0.5–0.6. Cells were harvested, washed, and resuspended in the same volume of buffer (5 mM HEPES, pH 7.2, 5 mM KCN, and 5 mM glucose). Next, 20 μL of 0.5 mM NPN was added and mixed with 1 mL of cells, and peptide samples (40 μg/mL) were added after 3 min. The increase in fluorescence due to partitioning of NPN into the outer membrane was measured 3 min after the addition of peptides using a spectrofluorometer (LS 50B Fluorescence Spectrometer; PerkinElmer, Waltham, MA, USA) at an excitation wavelength of 350 nm and an emission wavelength of 420 nm at 25 °C. The extent of cytoplasmic membrane permeabilization was determined by measuring β-galactosidase activity in E. coli ML35p using O-nitrophenyl-β-D-galactopyranoside (ONPG), a nonmembrane-permeative chromogenic substrate. Mid-logarithmic phase E. coli cells were washed in 10 mM sodium phosphate buffer (NaPB), pH 7.4, and resuspended in the same buffer with 1.5 mM ONPG. The hydrolysis of ONPG to O-nitrophenol over time was monitored spectrophotometrically at 420 nm following the addition of peptide samples. Membrane permeabilization assays were performed in triplicate and the results were averaged.

[15] = system: E. coli ML35p inner cytoplasmic membrane; test: Cytoplasmic membrane permeabilization, β-galactosidase/ONPG assay; assay type: cell-based, Escherichia coli; settings: peptide 40 μg/mL, 10 mM NaPB pH 7.4, 1.5 mM ONPG; triplicate
Description: as §3

Substance	Minimal Effectives Concentration [1]	Minimal Effectives Concentration [2]	Minimal Effectives Concentration [3]	Minimal Effectives Concentration [4]	Minimal Effectives Concentration [5]	Minimal Effectives Concentration [6]	Minimal Effectives Concentration [7]	Minimal Effectives Concentration [8]	Minimal Effectives Concentration [9]	Minimal Effectives Concentration [10]	Minimal Effectives Concentration [11]	Minimal Effectives Concentration [12]	Minimal Effectives Concentration [13]	Outer membrane permeabilization ability (NPN fluorescence) [14]	Inner cytoplasmic membrane permeabilization ability (ONPG hydrolysis, 420 nm) [15]
RFPGLMMKLLV-NH2 (C-terminus assumed) [ofLBP 1N]	1.4 µg/mL	1.0 µg/mL	5.3 µg/mL	5.6 µg/mL	1.7 µg/mL	0.8 µg/mL	6.4 µg/mL	1.2 µg/mL	4.8 µg/mL	125.0 µg/mL	5.3 µg/mL	2.2 µg/mL	5.9 µg/mL	significant outer membrane permeabilization ability	strong permeabilization ability
RFPKLMMKLLV-NH2 [ofLBP 2A]	0.8 µg/mL	1.2 µg/mL	5.7 µg/mL	5.0 µg/mL	1.2 µg/mL	0.6 µg/mL	6.6 µg/mL	1.2 µg/mL	3.6 µg/mL	62.5 µg/mL	3.0 µg/mL	1.7 µg/mL	5.6 µg/mL	significant outer membrane permeabilization ability	strong permeabilization ability
